Assay results: ChEMBL document CHEMBL1154960, “Development of improved inhibitors of wall teichoic acid biosynthesis with potent activity against Staphylococcus aureus” (Bioorg Med Chem Lett, 2010)
Active and inactive are the calls of the source. The rule behind the calls is not given here.

test system: Staphylococcus aureus; assay: Antibacterial activity against Staphylococcus aureus RN4220 assessed as cell survival at 100 uM after 12 hrs by optical density plate reader method; format: functional; conditions: RN4220, 12 h

Row | SMILES | survival at 100 µM [%]
1 | Cc1ccc(C2Nc3cc(C)c(C)cc3-n3c(-c4ccccc4)c4c(=O)n(C)c(=O)n(C)c4c32)o1 (centres undefined) | 95
2 | Cc1ccc(-c2c3c(=O)n(C)c(=O)n(C)c3c3n2-c2ccccc2NC3c2ccc(C)cc2O)cc1 (centres undefined) | 34
3 | Cc1ccc(C2Nc3ccccc3-n3c(-c4ccccc4)c4c(=O)n(C)c(=O)n(C)c4c32)cc1 (centres undefined) | 4
4 | Cc1cc2c(cc1C)-n1c(-c3ccccc3)c3c(=O)n(C)c(=O)n(C)c3c1C(c1ccco1)N2 (centres undefined) | 94
5 | Cn1c(=O)c2c(-c3ccc(Cl)cc3)n3c(c2n(C)c1=O)C(c1ccccc1)Nc1ccccc1-3 (centres undefined) | 65
6 | COc1ccc(-c2c3c(=O)n(C)c(=O)n(C)c3c3n2-c2ccccc2NC3c2ccccc2OC)cc1 (centres undefined) | 67

test system: Staphylococcus aureus; assay: Antibacterial activity against tarO deficient Staphylococcus aureus RN4220 assessed as growth inhibition at 100 uM after 12 hrs by optical density plate reader method; format: functional; conditions: not given

Row | SMILES | Activity
7 | NC(=O)C1CCN(c2nc3c(S(=O)(=O)c4ccc(Br)cc4)nnn3c3ccccc23)CC1 | inactive
8 | Cc1ccc(C)c(S(=O)(=O)c2nnn3c2nc(NCCC(C)C)c2ccccc23)c1 | inactive
9 | CCc1ccc(S(=O)(=O)c2nnn3c2nc(NCc2cccc(OC)c2)c2cc(Cl)ccc23)cc1 | inactive
10 | CSc1cccc(Nc2nc3c(S(=O)(=O)c4ccccc4)nnn3c3ccc(Cl)cc23)c1 | inactive
11 | COc1ccccc1CNc1nc2c(S(=O)(=O)c3ccccc3)nnn2c2ccc(Cl)cc12 | inactive
12 | Nc1nc2c(C(=O)N3CCOCC3)nnn2c2ccccc12 | inactive
13 | O=S(=O)(c1ccccc1)c1nnn2c1nc(Nc1ccccc1)c1cc(Cl)ccc12 | inactive
14 | Cc1ccc(S(=O)(=O)c2nnn3c2nc(NCC2CCCO2)c2ccccc23)cc1 (centres undefined) | inactive
15 | Cc1ccc(C)c(N2CCN(c3nc4c(S(=O)(=O)c5ccccc5)nnn4c4ccc(Cl)cc34)CC2)c1 | inactive
16 | CCc1ccc(S(=O)(=O)c2nnn3c2nc(N2CCC(C(N)=O)CC2)c2cc(Cl)ccc23)cc1 | inactive
17 | COc1ccccc1N1CCN(c2nc3c(S(=O)(=O)c4ccccc4)nnn3c3ccc(Cl)cc23)CC1 | inactive
18 | O=S(=O)(c1ccccc1)c1nnn2c1nc(Cl)c1ccccc12 | inactive
19 | CCOC(=O)C1CCCN(c2nc3c(S(=O)(=O)c4ccccc4)nnn3c3ccccc23)C1 (centres undefined) | inactive
20 | CCc1ccc(S(=O)(=O)c2nnn3c2nc(NCCC(C)C)c2cc(Cl)ccc23)cc1 | inactive
21 | O=S(=O)(c1ccccc1)c1nnn2c1nc(N1CCN(c3ccccc3)CC1)c1cc(Cl)ccc12 | inactive
22 | COCCCNc1nc2c(S(=O)(=O)c3ccccc3)nnn2c2ccc(Cl)cc12 | inactive
23 | Cc1ccc(C)c(S(=O)(=O)c2nnn3c2nc(Nc2ccc(C)c(C)c2)c2ccccc23)c1 | inactive
24 | CC(=O)c1ccc(N2CCN(c3nc4c(S(=O)(=O)c5ccc(C)c(C)c5)nnn4c4ccc(Cl)cc34)CC2)cc1 | inactive
25 | CCc1ccc(S(=O)(=O)c2nnn3c2nc(NC(C)C)c2cc(Cl)ccc23)cc1 | inactive
26 | CC(=O)NCCNc1nc2c(-c3ccccc3)nnn2c2ccccc12 | inactive
27 | CCOC(=O)C1CCN(c2nc3c(S(=O)(=O)c4ccc(C)c(C)c4)nnn3c3ccc(Cl)cc23)CC1 | inactive
28 | CCc1ccc(S(=O)(=O)c2nnn3c2nc(NCc2ccccc2OC)c2cc(Cl)ccc23)cc1 | inactive
29 | CC(=O)c1ccc(Nc2nc3c(S(=O)(=O)c4ccc(C)c(C)c4)nnn3c3ccccc23)cc1 | inactive
30 | CCc1ccc(S(=O)(=O)c2nnn3c2nc(NCCNC(C)=O)c2cc(Cl)ccc23)cc1 | inactive
31 | CCOC(=O)C1CCN(c2nc3c(S(=O)(=O)c4ccc(CC)cc4)nnn3c3ccc(Cl)cc23)CC1 | inactive
32 | CCc1ccc(S(=O)(=O)c2nnn3c2nc(N2CCN(c4ccccc4)CC2)c2cc(Cl)ccc23)cc1 | inactive

Row | SMILES | Activity
33 | CCN(CC)c1nc2c(S(=O)(=O)c3ccccc3)nnn2c2ccccc12 | inactive
34 | COc1ccc(CNc2nc3c(S(=O)(=O)c4ccccc4)nnn3c3ccc(Cl)cc23)cc1 | inactive
35 | CCOCCCNc1nc2c(S(=O)(=O)c3ccc(CC)cc3)nnn2c2ccc(Cl)cc12 | inactive
36 | Cc1ccc(S(=O)(=O)c2nnn3c2nc(N2CCC(C(N)=O)CC2)c2cc(Cl)ccc23)cc1C | inactive
37 | CCN(Cc1ccccc1)c1nc2c(S(=O)(=O)c3ccccc3)nnn2c2ccc(Cl)cc12 | inactive
38 | CN(Cc1ccccc1)c1nc2c(S(=O)(=O)c3ccccc3)nnn2c2ccccc12 | inactive
39 | O=C1CCCN1CCCNc1nc2c(S(=O)(=O)c3ccc(Br)cc3)nnn2c2ccccc12 | inactive
40 | CC1CCN(c2nc3c(S(=O)(=O)c4ccccc4)nnn3c3ccc(Cl)cc23)CC1 | inactive
41 | COc1ccc(Nc2nc3c(S(=O)(=O)c4ccccc4)nnn3c3ccc(Cl)cc23)cc1OC | inactive
42 | CCN(Cc1ccccc1)c1nc2c(S(=O)(=O)c3ccc(C)c(C)c3)nnn2c2ccc(Cl)cc12 | inactive
43 | Cc1ccc(S(=O)(=O)c2nnn3c2nc(N2CCN(c4ccc(F)cc4)CC2)c2cc(Cl)ccc23)cc1C | inactive
44 | O=C(Nc1ccc(Nc2nc3c(S(=O)(=O)c4ccc(Br)cc4)nnn3c3ccccc23)cc1)c1ccco1 | inactive
45 | COCCCNc1nc2c(S(=O)(=O)c3ccc(C)c(C)c3)nnn2c2ccc(Cl)cc12 | inactive
46 | Cc1ccc(S(=O)(=O)c2nnn3c2nc(N2CCN(c4ccccc4F)CC2)c2cc(Cl)ccc23)cc1C | inactive
47 | CCc1ccc(S(=O)(=O)c2nnn3c2nc(Nc2ccc(F)cc2)c2cc(Cl)ccc23)cc1 | inactive
48 | CCc1ccc(S(=O)(=O)c2nnn3c2nc(N2CCC(C)CC2)c2cc(Cl)ccc23)cc1 | inactive
49 | Cc1ccc(S(=O)(=O)c2nnn3c2nc(NC(C)C)c2cc(Cl)ccc23)cc1C | inactive
50 | CCOC(=O)C1CCN(c2nc3c(S(=O)(=O)c4ccccc4)nnn3c3ccc(Cl)cc23)CC1 | inactive
51 | Cc1ccc(CNc2nc3c(S(=O)(=O)c4ccc(C)c(C)c4)nnn3c3ccc(Cl)cc23)cc1 | inactive
52 | CC(=O)c1ccccc1N1CCN(c2nc3c(S(=O)(=O)c4ccccc4)nnn3c3ccc(Cl)cc23)CC1 | inactive
53 | Cc1ccc(CNc2nc3c(S(=O)(=O)c4cc(C)ccc4C)nnn3c3ccccc23)cc1 | inactive
54 | Cc1ccc(N2CCN(c3nc4c(S(=O)(=O)c5ccc(C)c(C)c5)nnn4c4ccccc34)CC2)c(C)c1 | inactive
55 | COCCNc1nc2c(S(=O)(=O)c3ccccc3)nnn2c2ccc(Cl)cc12 | inactive
56 | Cc1ccc(S(=O)(=O)c2nnn3c2nc(NCCC(C)C)c2cc(Cl)ccc23)cc1C | inactive
57 | CCc1ccc(S(=O)(=O)c2nnn3c2nc(N2CCCC(C)C2)c2cc(Cl)ccc23)cc1 (centres undefined) | inactive
58 | Cc1ccc(S(=O)(=O)c2nnn3c2nc(N2CCN(c4cccc(C)c4C)CC2)c2ccccc23)cc1C | inactive

Row | SMILES | Activity
59 | CCc1ccc(S(=O)(=O)c2nnn3c2nc(Nc2cc(OC)cc(OC)c2)c2cc(Cl)ccc23)cc1 | inactive
60 | Cc1ccc(S(=O)(=O)c2nnn3c2nc(N2CCC(C)CC2)c2cc(Cl)ccc23)cc1C | inactive
61 | O=S(=O)(c1ccccc1)c1nnn2c1nc(NCc1ccccc1)c1cc(Cl)ccc12 | inactive
62 | CCc1ccc(S(=O)(=O)c2nnn3c2nc(NCc2ccccc2)c2cc(Cl)ccc23)cc1 | inactive
63 | CCOC(=O)C1CCCN(c2nc3c(S(=O)(=O)c4ccc(CC)cc4)nnn3c3ccc(Cl)cc23)C1 (centres undefined) | inactive
64 | CCc1ccc(S(=O)(=O)c2nnn3c2nc(N(C)Cc2ccccc2)c2cc(Cl)ccc23)cc1 | inactive
65 | Cc1ccc(S(=O)(=O)c2nnn3c2nc(N2CCCC(C)C2)c2cc(Cl)ccc23)cc1C (centres undefined) | inactive
66 | COc1cc(Nc2nc3c(S(=O)(=O)c4ccccc4)nnn3c3ccc(Cl)cc23)cc(OC)c1 | inactive
67 | COc1ccccc1CNc1nc2c(S(=O)(=O)c3ccc(C)c(C)c3)nnn2c2ccc(Cl)cc12 | inactive
68 | CC(=O)NCCNc1nc2c(S(=O)(=O)c3ccc(C)c(C)c3)nnn2c2ccc(Cl)cc12 | inactive
69 | CC(=O)c1ccc(Nc2nc3c(S(=O)(=O)c4ccccc4)nnn3c3ccc(Cl)cc23)cc1 | inactive
70 | COc1ccc(Nc2nc3c(S(=O)(=O)c4ccccc4)nnn3c3ccc(Cl)cc23)c(OC)c1 | inactive
71 | CCc1ccc(S(=O)(=O)c2nnn3c2nc(N(CC)Cc2ccccc2)c2cc(Cl)ccc23)cc1 | inactive
72 | CCOC(=O)c1nnn2c1nc(N(CC)CC)c1ccccc12 | inactive
73 | O=S(=O)(c1ccc(Cl)cc1)c1nnn2c1nc(Cl)c1ccccc12 | inactive
74 | Cc1ccc(S(=O)(=O)c2nnn3c2nc(N2CCN(c4ccccc4F)CC2)c2ccccc23)cc1C | inactive
75 | Cc1ccc(S(=O)(=O)c2nnn3c2nc(N2CCCC2)c2ccccc23)cc1 | inactive
76 | Cc1ccc(Nc2nc3c(S(=O)(=O)c4ccccc4)nnn3c3ccc(Cl)cc23)c(C)c1 | inactive
77 | CCOC(=O)C1CCCN(c2nc3c(S(=O)(=O)c4ccc(C)c(C)c4)nnn3c3ccc(Cl)cc23)C1 (centres undefined) | inactive
78 | c1ccc(-c2nnn3c2nc(N2CCOCC2)c2ccccc23)cc1 | inactive
79 | O=S(=O)(c1ccccc1)c1nnn2c1nc(N1CCCC1)c1cc(Cl)ccc12 | inactive
80 | CCOc1ccc(Nc2nc3c(S(=O)(=O)c4ccc(CC)cc4)nnn3c3ccc(Cl)cc23)cc1 | inactive
81 | COc1ccccc1N1CCN(c2nc3c(S(=O)(=O)c4ccc(C)c(C)c4)nnn3c3ccc(Cl)cc23)CC1 | inactive
82 | COc1ccc(Nc2nc3c(S(=O)(=O)c4ccccc4)nnn3c3ccc(Cl)cc23)cc1 | inactive
83 | COc1ccccc1Nc1nc2c(S(=O)(=O)c3c(C)cc(C)cc3C)nnn2c2ccccc12 | inactive

test system: Staphylococcus aureus; assay: Antibacterial activity against tarO deficient Staphylococcus aureus RN4220 assessed as cell survival at 100 uM after 12 hrs by optical density plate reader method; format: functional; conditions: RN4220, 12 h

Row | SMILES | survival at 100 µM [%]
84 | Cc1ccc(C2Nc3cc(C)c(C)cc3-n3c(-c4ccccc4)c4c(=O)n(C)c(=O)n(C)c4c32)o1 (centres undefined) | 92
85 | Cc1ccc(-c2c3c(=O)n(C)c(=O)n(C)c3c3n2-c2ccccc2NC3c2ccc(C)cc2O)cc1 (centres undefined) | 64
86 | Cc1ccc(C2Nc3ccccc3-n3c(-c4ccccc4)c4c(=O)n(C)c(=O)n(C)c4c32)cc1 (centres undefined) | 70
87 | Cc1cc2c(cc1C)-n1c(-c3ccccc3)c3c(=O)n(C)c(=O)n(C)c3c1C(c1ccco1)N2 (centres undefined) | 103
88 | Cn1c(=O)c2c(-c3ccc(Cl)cc3)n3c(c2n(C)c1=O)C(c1ccccc1)Nc1ccccc1-3 (centres undefined) | 74
89 | COc1ccc(-c2c3c(=O)n(C)c(=O)n(C)c3c3n2-c2ccccc2NC3c2ccccc2OC)cc1 (centres undefined) | 85
